Laboratory results published in US5681563A, “7-vinylidene cephalosporins and methods of using the same” (Research Corporation Technologies, Inc., priority 1996, dated 1997).
Structures can show the parent of a compound that is named as a salt. Where two headings read alike, the source gives them in different places.

Biological target: β-lactamase of Enterobacter cloacae P99 (Enterobacter cloacae, UniProt P05364)
Assay: P99 β-lactamase inhibitory activity (loss of nitrocefin hydrolysis by free enzyme)
Format: biochemical
Procedure: The activity of the present compounds against β-lactamases was determined by measuring the IC50. The IC50 value represents the concentration of inhibitor required to effect a 50% loss of activity of free enzyme. The present 7-vinylidenecephems were evaluated as inhibitors of the β-lactamase of Enterobacter cloacae P99. The IC50 value of each compound was determined as follows. Following a 10 minute incubation of a dilute solution of enzyme (2.56 nM) and inhibitor (<0.64 mM), a […] of this incubation mixture was then further diluted into 1 mL nitrocefin solution, and the rate of hydrolysis was measured during a 1 minute period by monitoring the absorbance of nitrocefin as a function of time.

[1] = P99 β-lactamase, 10 minute incubation of enzyme (2.56 nM) and inhibitor (<0.64 mM), then dilution into nitrocefin solution, rate over 1 minute, read-out: IC50 (converted)
[2] = P99 β-lactamase, 10 minute incubation of enzyme (2.56 nM) and inhibitor (<0.64 mM), then dilution into nitrocefin solution, rate over 1 minute

Chain of β-lactamase of Enterobacter cloacae P99 (P05364 21-381): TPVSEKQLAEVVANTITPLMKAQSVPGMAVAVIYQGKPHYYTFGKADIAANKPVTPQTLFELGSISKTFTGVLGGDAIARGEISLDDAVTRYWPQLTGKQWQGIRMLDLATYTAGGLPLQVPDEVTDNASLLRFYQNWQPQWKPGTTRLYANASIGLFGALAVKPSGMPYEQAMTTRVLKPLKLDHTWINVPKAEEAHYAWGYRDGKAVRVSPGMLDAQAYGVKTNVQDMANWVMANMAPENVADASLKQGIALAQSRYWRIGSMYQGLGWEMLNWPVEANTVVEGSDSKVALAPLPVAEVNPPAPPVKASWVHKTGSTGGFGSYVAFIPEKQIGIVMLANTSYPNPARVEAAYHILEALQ

Molecule: C=C=C1C(=O)N2C(C(=O)O)=C(COC(C)=O)CS[C@H]12 [Compound 15, Sodium Salt of 7-Vinylidene Cephalosporanic Acid]
- IC50 [1]: 91800 nM

Molecule: 7-(2'α-t-butyl-2'β-deuteriovinylidene) cephem sulfone
- IC50 [2]: 100 µg/mL

Molecule: C=C=C1C(=O)N2C(C(=O)O)=C(COC(C)=O)CS(=O)(=O)[C@H]12 [Compound 17, 7-vinylidenecephem sulfone]
- IC50 [1]: 351 nM

Molecule: CC(C)(C)C=C=C1C(=O)N2[C@@H](C(=O)O)C(C)(C)S(=O)(=O)[C@H]12 [6-(2'α-t-butylvinylidene) penam sulfone, reference compound]
- IC50 [1]: 1240 nM

Molecule: CC(=O)OCC1=C(C(=O)O)N2C(=O)C(=C=CC(C)(C)C)[C@H]2SC1 [Compound 13, Sodium Salt of 7-(2'α-t-Butylvinylidene) Cephalosporanic Acid]
- IC50 [1]: 11600 nM

Molecule: CC(=O)OCC1=C(C(=O)O)N2C(=O)C(=C=CC(C)(C)C)[C@H]2S(=O)(=O)C1 [Compound 16, Sodium Salt of 7-(2'α-t-Butylvinylidene) Cephalosporanic Acid Sulfone]
- fold better inhibitor than clavulanic acid: ~350 fold
- fold better inhibitor than tazobactam: approximately five
- β-lactamase inhibition (in words): most potent inhibitor
- IC50 (read-out: IC50 (converted)): 135 nM

Molecule: CC(=O)OCC1=C(C(=O)[O-])N2C(=O)C(=C=CBr)C2SC1.[Na+] (stereo not drawn) [Compound 14, Sodium Salt of 7-(2'α-Bromovinylidene) Cephalosporanic Acid]
- IC50 [2]: 6160 µg/mL
